Where a SMILES comes first, the peptide text is derived from it. [ ]: non-standard residue; d: D form. The star is where a group is joined. NHCH2CH2OH = OCCN*; For = O=C*
How the values were obtained:
[1] = H+/Na+ transport assay of bead-derived peptides (one-point); assay type: biochemical; parameters: key: relative activity; mean of two control wells = 1.00; conditions: bead-derived peptide solution, EYPC/EYPG LUVs;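 also: relative to parent gramicidin A activity set to 1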
Method in brief: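 H+/Na+ transport is monitored through pyranine fluorescence in freshly extruded LUVs after a 30-min room-temperature vortex with each library peptide at a single concentration. Signals are normalized to detergent (Triton X-100) and untreated controls.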

[2] = tested on: Streptococcus pyogenes SSI-9; experiment: Antibacterial activity assay of bead-derived peptides (three concentrations); assay type: cell-based; parameters: key: +++: inhibition by the 640-fold diluted peptide solution; ++: inhibition by the 160-fold diluted solution; +: inhibition by the 40-fold diluted solution; -: no inhibition; conditions: S. pyogenes, bead-derived peptide solution, three concentrations
Method in brief: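 First, each peptide stock was diluted 4- and 16-fold in DMSO; next, the three solutions were mixed with S. pyogenes SSI-9 suspension (2 × 10^5 CFU) in cation-adjusted Mueller Hinton Broth plus 5% laked horse blood; finally, plates stood 18 h at 37 °C before checking for grown-cell precipitation.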

[3] = cell viability/%
Method in brief: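 Peptide stocks diluted 250× in growth medium; P388 cells 1 × 10^4 cells/mL final; 37 °C, 5% CO2, 92 h. WST-1 + 1-methoxy PMS, 4 h, A415. Output: % viability.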

SMILES | H+/Na+ transport activity normalized against the value of 1 (1.00) [1] | antibacterial activity [2] | viability [3] [%]
CNC(=O)C[C@@H](NC(=O)[C@H](C)NC(=O)[C@@H](CC(C)C)NC(=O)[C@H](C)NC(=O)CNC(=O)[C@@H](NC=O)C(C)C)C(=O)N[C@H](C(=O)N[C@@H](C(=O)N[C@@H](Cc1c[nH]c2ccccc12)C(=O)N[C@H](CC(C)C)C(=O)N[C@@H](Cc1c[nH]c2ccccc12)C(=O)N[C@@H](C(=O)N[C@@H](Cc1c[nH]c2ccccc12)C(=O)N[C@@H](C(=O)N[C@@H](Cc1c[nH]c2ccccc12)C(=O)NCCO)C(C)C)C(C)C)C(C)C)C(C)C [compound 11290] (For-VGA[dL]A[dD](NHMe)V[dV]W[dL]W[dV]W[dV]W-NHCH2CH2OH) | 1.47 | - | 87.6
CNC(=O)C[C@@H](NC(=O)[C@H](Cc1c[nH]c2ccccc12)NC(=O)[C@@H](CC(C)C)NC(=O)[C@@H](NC(=O)[C@@H](CC(C)C)NC(=O)[C@H](C)NC(=O)[C@@H](CC(C)C)NC(=O)[C@H](C)NC(=O)CNC(=O)[C@@H](NC=O)C(C)C)C(C)C)C(=O)N[C@@H](Cc1c[nH]c2ccccc12)C(=O)N[C@@H](C(=O)N[C@@H](Cc1c[nH]c2ccccc12)C(=O)N[C@H](CC(C)C)C(=O)N[C@@H](Cc1c[nH]c2ccccc12)C(=O)NCCO)C(C)C [compound 2432] (For-VGA[dL]A[dL]V[dL]W[dD](NHMe)W[dV]W[dL]W-NHCH2CH2OH) | 1.06 | - | 100
CC(C)C[C@@H](NC(=O)[C@H](C)NC(=O)CNC(=O)[C@@H](NC=O)C(C)C)C(=O)N[C@@H](C)C(=O)N[C@@H](C(=O)N[C@H](C(=O)N[C@H](CC(C)C)C(=O)N[C@@H](Cc1c[nH]c2ccccc12)C(=O)N[C@H](CC(C)C)C(=O)N[C@@H](Cc1c[nH]c2ccccc12)C(=O)N[C@@H](C(=O)N[C@@H](Cc1c[nH]c2ccccc12)C(=O)N[C@H](CC(C)C)C(=O)N[C@@H](Cc1c[nH]c2ccccc12)C(=O)NCCO)C(C)C)C(C)C)[C@H](C)O [compound 3247] (For-VGA[dL]A[dT]V[dL]W[dL]W[dV]W[dL]W-NHCH2CH2OH) | 1.24 | - | 99.5
CC(C)C[C@@H](NC(=O)[C@H](C)NC(=O)CNC(=O)[C@@H](NC=O)C(C)C)C(=O)N[C@@H](C)C(=O)N[C@@H](C(=O)N[C@H](C(=O)N[C@@H](C(=O)N[C@@H](Cc1c[nH]c2ccccc12)C(=O)N[C@H](CC(C)C)C(=O)N[C@@H](Cc1c[nH]c2ccccc12)C(=O)N[C@H](CC(C)C)C(=O)N[C@@H](Cc1c[nH]c2ccccc12)C(=O)N[C@H](CC(C)C)C(=O)N[C@@H](Cc1c[nH]c2ccccc12)C(=O)NCCO)[C@H](C)O)C(C)C)C(C)C [compound 1819] (For-VGA[dL]A[dV]V[dT]W[dL]W[dL]W[dL]W-NHCH2CH2OH) | 1.22 | + | 100
CNC(=O)C[C@@H](NC(=O)[C@H](C)NC(=O)[C@@H](CC(C)C)NC(=O)[C@H](C)NC(=O)CNC(=O)[C@@H](NC=O)C(C)C)C(=O)N[C@H](C(=O)N[C@@H](C(=O)N[C@@H](Cc1c[nH]c2ccccc12)C(=O)N[C@H](CC(C)C)C(=O)N[C@@H](Cc1c[nH]c2ccccc12)C(=O)N[C@H](CC(C)C)C(=O)N[C@@H](Cc1c[nH]c2ccccc12)C(=O)N[C@@H](C(=O)N[C@@H](Cc1c[nH]c2ccccc12)C(=O)NCCO)C(C)C)C(C)C)C(C)C [compound 346] (For-VGA[dL]A[dD](NHMe)V[dV]W[dL]W[dL]W[dV]W-NHCH2CH2OH) | 1.12 | - | 100
CC(C)C[C@@H](NC(=O)[C@H](C)NC(=O)CNC(=O)[C@@H](NC=O)C(C)C)C(=O)N[C@@H](C)C(=O)N[C@H](CC(C)C)C(=O)N[C@H](C(=O)N[C@H](CC(C)C)C(=O)N[C@@H](Cc1c[nH]c2ccccc12)C(=O)N[C@@H](C(=O)N[C@@H](Cc1c[nH]c2ccccc12)C(=O)N[C@H](CC(C)C)C(=O)N[C@@H](Cc1c[nH]c2ccccc12)C(=O)N[C@@H](C(=O)N[C@@H](Cc1c[nH]c2ccccc12)C(=O)NCCO)[C@H](C)O)C(C)C)C(C)C [compound 770] (For-VGA[dL]A[dL]V[dL]W[dV]W[dL]W[dT]W-NHCH2CH2OH) | 1.11 | - | 100
CC(C)C[C@@H](NC(=O)[C@H](Cc1c[nH]c2ccccc12)NC(=O)[C@@H](CC(C)C)NC(=O)[C@@H](NC(=O)[C@H](NC(=O)[C@H](C)NC(=O)[C@H](NC(=O)[C@H](C)NC(=O)CNC(=O)[C@@H](NC=O)C(C)C)[C@H](C)O)C(C)C)C(C)C)C(=O)N[C@@H](Cc1c[nH]c2ccccc12)C(=O)N[C@@H](C(=O)N[C@@H](Cc1c[nH]c2ccccc12)C(=O)N[C@@H](C(=O)N[C@@H](Cc1c[nH]c2ccccc12)C(=O)NCCO)C(C)C)C(C)C [compound 5563] (For-VGA[dT]A[dV]V[dL]W[dL]W[dV]W[dV]W-NHCH2CH2OH) | 1.08 | - | 100
CC(C)C[C@@H](NC(=O)[C@H](C)NC(=O)CNC(=O)[C@@H](NC=O)C(C)C)C(=O)N[C@@H](C)C(=O)N[C@H](CC(C)C)C(=O)N[C@H](C(=O)N[C@H](CC(C)C)C(=O)N[C@@H](Cc1c[nH]c2ccccc12)C(=O)N[C@@H](C(=O)N[C@@H](Cc1c[nH]c2ccccc12)C(=O)N[C@@H](C(=O)N[C@@H](Cc1c[nH]c2ccccc12)C(=O)N[C@H](CC(C)C)C(=O)N[C@@H](Cc1c[nH]c2ccccc12)C(=O)NCCO)C(C)C)[C@H](C)O)C(C)C [compound 196] (For-VGA[dL]A[dL]V[dL]W[dT]W[dV]W[dL]W-NHCH2CH2OH) | 1.06 | - | 100
CNC(=O)C[C@@H](NC(=O)[C@H](C)NC(=O)[C@@H](CC(C)C)NC(=O)[C@H](C)NC(=O)CNC(=O)[C@@H](NC=O)C(C)C)C(=O)N[C@H](C(=O)N[C@H](CC(C)C)C(=O)N[C@@H](Cc1c[nH]c2ccccc12)C(=O)N[C@H](CC(C)C)C(=O)N[C@@H](Cc1c[nH]c2ccccc12)C(=O)N[C@@H](C(=O)N[C@@H](Cc1c[nH]c2ccccc12)C(=O)N[C@@H](C(=O)N[C@@H](Cc1c[nH]c2ccccc12)C(=O)NCCO)C(C)C)C(C)C)C(C)C [compound 7119] (For-VGA[dL]A[dD](NHMe)V[dL]W[dL]W[dV]W[dV]W-NHCH2CH2OH) | 1.15 | - | 100
CNC(=O)C[C@@H](NC(=O)[C@H](Cc1c[nH]c2ccccc12)NC(=O)[C@@H](CC(C)C)NC(=O)[C@H](Cc1c[nH]c2ccccc12)NC(=O)[C@@H](CC(C)C)NC(=O)[C@H](Cc1c[nH]c2ccccc12)NC(=O)[C@@H](CC(C)C)NC(=O)[C@@H](NC(=O)[C@@H](CC(C)C)NC(=O)[C@H](C)NC(=O)[C@@H](CC(C)C)NC(=O)[C@H](C)NC(=O)CNC(=O)[C@@H](NC=O)C(C)C)C(C)C)C(=O)N[C@@H](Cc1c[nH]c2ccccc12)C(=O)NCCO [compound 300] (For-VGA[dL]A[dL]V[dL]W[dL]W[dL]W[dD](NHMe)W-NHCH2CH2OH) | 1.00 | - | 100

From PMC7531004, “Discovery of gramicidin A analogues with altered activities by multidimensional screening of a one-bead-one-compound library” (Nature Communications, 2020)
